Measured values reported in US20160324172A1, “Post-Harvest Coating for Fresh Produce” (Jones-Hamilton Co., priority 2015, published 2016).

Test: Solubility of emulsifier/stabilizer in the coating solution (visual evaluation)
Type: physicochemical
Experimental: For this experiment, coating solutions consisted of: 200 g tap water, 14 g SAS (7 w %), 30 g cornstarch (15 w %), and varying amounts of diverse emulsifiers/stabilizers.
Treatment: For each emulsifying material, one grape tomato was soaked for 1 minute in respective coating solution, and allowed to dry on a cooling tray. If material generated a visually preferred coating, 8 more grape tomatoes were coated (ntotal=9) in the same solution to generate enough samples for a microbial test. […] A second grape tomato was soaked, and if the stickiness improved, the concentration of the emulsifying ingredient was further increased until preferred coating was achieved. 8 more tomatoes were coated at preferred concentration (ntotal=9) for microbial testing.
Evaluation: Coatings were photographed and evaluated visually after the material dried. Microbial test of tomatoes with preferred coatings: Grape tomatoes were stored for 7 days at room temperature on cooling trays. Three tomatoes (triplicates) were swabbed with pre-wetted cotton swabs after: 24 hours, 3 days and 7 days. For dilution purpose, the swabs were transferred to Eppendorf tubes with 1 ml PBS. Three 1 ul loops (triplicates) were used to transfer three 1 ul samples per Eppendorf tube to nutrient agar plates. Per swab: 1 Eppendorf tubes and 3 nutrient agar plates. Per tomato: 3 Eppendorf tubes and 9 nutrient agar plates. Nutrient agar plates were incubated at room temperature for 7 days. Colony forming units were counted after: 24 hours, 3 days and 7 days.

OCC(O)CO [Vegetable glycerin, glycerin]
solubility in the water-based coating solution: good solubility | Coating solution (Solubility of emulsifier/stabilizer) (200 g tap water, 14 g SAS, 30 g cornstarch plus emulsifier, visual evaluation): Good | Solubility (overall assessment, solubility in coating solution): Good
